From patent US8946436B2, “Oxazolidinone compounds and their uses in preparation of antibiotics” (Sichuan Gooddoctor Pharmaceutical Group Co., Ltd., priority 2011, dated 2015) come the findings set out here.

Series [1] deals with S. pneumoniae. The experiment in a line: In vitro antibacterial activity (MIC), S. pneumoniae. Type of series: cell-based. The settings on record: Streptococcus pneumoniae. How it is done:
(§1) The test strain was inoculated into the liquid medium and cultured at 37° C. for 16-18 h. The culture liquid and MH medium were put into two blank wells of a 96-well plate, respectively. Then, the absorptions thereof were measured by a Microplate reader. The difference between the absorption values of the culture liquid and MH medium is the adsorption of the bacteria. The concentration of the culture liquid can be calculated according to the formula of 1OD=50 million CFU/mL. The culture liquid was diluted with the MH bouillon culture medium to 5000 CFU/mL for further use.
(§2) Compounds 12a, 13 and 14 were dissolved in DMSO to 1 mg/mL, and then filtered with a 0.22 μm filter to obtain the compound solutions. And then they were gradually diluted to a desired concentration (10× final concentration) with the liquid medium, so as to obtain a series of dilutions. The final concentration grade of the dilutions of each tested compound consists of 14 concentrations, which includes: 0.03125 μg/mL, […], 0.125 μg/mL, 0.25 μg/mL, […], 1 μg/mL, 2 μg/mL, 4 μg/mL, 8 μg/mL, 16 μg/mL, 32 μg/mL, 64 μg/mL, 128 μg/mL and 256 μg/mL.
(§3) 10 μL of each of the compound dilutions above was added into a well of a 96-well plate. 90 μL of the culture liquid (5000 CFU/mL) was added into each of the wells, respectively, mixed with the dilutions to render the tested compound concentration to the final concentration. The resulted mixture was incubated at 37° C. for 16-18 h, and then the OD630 thereof was measured. A culture liquid free of the tested compounds is used as a blank control, and three parallel tests with the same concentration of each compound were performed. The minimum inhibitory concentration (MIC) of each compound on the standard strain of Staphylococcus Aureus and other test strains was determined. Specifically, among the culture liquid contained in the wells of the micro-plate, the first three lowest concentrations under which growth of the test strains could be observed were chose for further evaluation of the MIC. A culture liquid free of tested compounds was used as a blank control. Each of the culture liquids was homogenized independently, and then was diluted with a sterile saline. Each of the diluted culture liquids was plated onto a MH bouillon plate and incubated at 37° C. for 20 h in incubator. After the incubation, the number of the colonies on each plate was counted. As compared with the blank control group, the lowest concentration of each of the test compound groups, at which 80% reduction in the colony number of the strains was achieved, was recorded as the MIC.

Series [2] concerns S. aureus. The experiment in a line: In vitro antibacterial activity (MIC), S. aureus. Type of series: cell-based, Staphylococcus Aureus. As to conditions: Staphylococcus aureus. How it is done:
Strains: strain ATCC25923 is available from the American Type Culture Collection, and is used as a standard strain of Staphylococcus Aureus;
Liquid medium: MH bouillon culture medium, a product of BD Company, United States of American;
Tested Compounds: compounds 12a, 13 and 14 prepared according to the methods above, and Linezolid purchased from Pfizer.
as §1, §2, §3

Series [3] relates to S. agalactiae. The experiment in a line: In vitro antibacterial activity (MIC), S. agalactiae. In kind it is cell-based. As to conditions: Streptococcus agalactiae. The method, then: as §1, §2, §3
In series [4] the test system is E. faecalis. The series can be described thus: In vitro antibacterial activity (MIC), E. faecalis. In kind it is cell-based. The settings on record: Enterococcus faecalis. The method, then:
as §1, §2, §3

Series [5] deals with L-02. The series can be described thus: Cytotoxicity experiment (MTT), L-02. In kind it is cell-based. As to conditions: Homo sapiens, L02, 48 h, L-02 normal cells, read-out: Inhibition ratio. How it is done:
(§4) (1) Inoculating cells: Experimental cells in the growth of logarithmic phase were collected and suspended. The cell concentration of the suspension was adjusted so that they could be inoculated into the wells of 96-well micro plate at a density between 10^3-10^4 cells per well (200 μl per well). (2) Culturing cells: The cells were cultured at normal conditions for 3 days and then exposed to 50 uM compounds for test. (3) Coloring reaction: At 24 h, 48 h and 72 h after the cells being exposed to the compounds for test, 200 μl culture medium containing 20 μl MTT solution (5 mg/ml) was added into each well, and the well was further incubated at 37° C. for 2 hours to terminate the incubation. After the incubation, the supernatants were removed from the wells. In the event there were suspended cells in the wells, centrifugation should be performed before removal of supernatant from the wells. After the removal, 150 μl DMSO was added to each well and mixed thoroughly by agitation for 10 mins to fully dissolve crystals. (4) Ascertainment of colorimetry: The absorbance value at 490 nm of each well was determined by Enzyme-linked immunosorbent Monitor. The growth curve of the experimental cells was plotted by taking time as x-coordinate and absorbance value as y-coordinate. In addition, an inhibition ratio could be calculated in accordance with the following formula: Inhibition ratio=(absorbance value of control group-absorbance value of administering group)/absorbance value of control group×100%.

The subject of series [6] is HEK-293. The experiment in a line: Cytotoxicity experiment (MTT), HEK-293. In kind it is cell-based. The settings on record: Homo sapiens, HEK293, 48 h, HEK-293 normal cells, read-out: Inhibition ratio. How it is done:
as §4

[7] abbreviates: S. pneumoniae (10 strains), read-out: MIC.
Setting [8] is: S. aureus (12 strains), read-out: MIC.
[9] abbreviates: S. agalactiae (5 strains), read-out: MIC.
Setting [10] is: E. faecalis (7 strains), read-out: MIC.

≈ marks a conversion by molar mass, not a printed value. Where two headings read alike, the source gives them in different places.

Consider `CC(=O)NC[C@H]1CN(c2ccc(-n3nccc3-c3ccc(C)cc3)c(F)c2)C(=O)O1` [Compound 14c, (S)-N-((3-(3-fluoro-4-(5-(p-tolyl)-1H-pyrazol-1-yl)phenyl)-2-oxooxazolidin-5-yl)methyl)acetamide], for which the melting point lay in the range of 89.5 to 91.9 °C. The minimal inhibitory concentration (MIC) in series [1] (setting [7]) fell in the range of 2 to 16 µg/mL (≈ 4.9 to 39.2 µM). For the same compound, the MIC in series [2] (setting [8]) was 4 to 32 µg/mL (≈ 9.79 to 78.3 µM). In addition, the MIC in series [3] (setting [9]) fell in the range of 2 to 32 µg/mL (≈ 4.9 to 78.3 µM). The MIC in series [4] (setting [10]) lay in the range of 2 to 32 µg/mL (≈ 4.9 to 78.3 µM). Besides, the cytotoxicity at 50 µM in series [5] stood at 39%. Also, the cytotoxicity at 50 µM in series [6] came out at 40%.

With `CC(=O)NC[C@H]1CN(c2ccc(-n3nccc3-c3ccc(Br)cc3)c(F)c2)C(=O)O1` [Compound 14d, (S)-N-((3-(3-fluoro-4-(5-(4-bromophenyl)-1H-pyrazol-1-yl)phenyl)-2-oxooxazolidin-5-yl)methyl)acetamide], the melting point was 96.8 to 98.8 °C. Also, the MIC in series [1] is 1 to 8 µg/mL (≈ 2.11 to 16.9 µM). For the same compound, in series [2], the MIC was in the range of 2 to 16 µg/mL (≈ 4.23 to 33.8 µM). The compound further returned an MIC in series [3] of 2 to 16 µg/mL (≈ 4.23 to 33.8 µM). This compound also returned an MIC in series [4] of 2 to 16 µg/mL (≈ 4.23 to 33.8 µM). The cytotoxicity at 50 µM in series [5] was found to be 39%. For the same compound, in series [6], the cytotoxicity at 50 µM is 55%.

In turn, `CC(=O)NC[C@H]1CN(c2ccc(-n3nccc3-c3cccc(Br)n3)c(F)c2)C(=O)O1` [Compound 14b, (S)-N-((3-(3-fluoro-4-(5-(6-bromopyridin-2-yl)-1H-pyrazol-1-yl)phenyl)-2-oxooxazolidin-5-yl)methyl) acetamide] showed a melting point of 90.5 to 92.3 °C. The MIC in series [1] (setting [7]) fell in the range of 2 to 32 µg/mL (≈ 4.22 to 67.5 µM). In addition, the MIC in series [2] (setting [8]) was in the range of 4 to 32 µg/mL (≈ 8.43 to 67.5 µM). Also, the MIC in series [3] (setting [9]) is 4 to 32 µg/mL (≈ 8.43 to 67.5 µM). Further, the MIC in series [4] (setting [10]) lay in the range of 4 to 32 µg/mL (≈ 8.43 to 67.5 µM). Also, the cytotoxicity at 50 µM in series [5] amounted to 21%. In addition, the cytotoxicity at 50 µM in series [6] was found to be 19.5%.

As to `CC(=O)NC[C@H]1CN(c2ccc(-n3cc(-c4ccc(C(=O)O)cn4)cn3)c(F)c2)C(=O)O1` [Compound 13e, (S)-N-((3-(3-fluoro-4-(4-(5-carboxyl-pyridin-2-yl)-1H-pyrazol-1-yl)phenyl)-2-oxooxazolidin-5-yl)methyl) acetamide], the melting point lay within 279.6 to 280.2 °C. Besides, in series [1] (setting [7]), the MIC lay within 0.5 to 8 µg/mL (≈ 1.14 to 18.2 µM). The MIC in series [2] (setting [8]) lay within 1 to 8 µg/mL (≈ 2.28 to 18.2 µM). The minimum inhibitory concentration (MIC) in series [3] (setting [9]) was 0.5 to 4 µg/mL (≈ 1.14 to 9.1 µM). In series [4] (setting [10]), the minimal inhibitory concentration (MIC) is 1 to 8 µg/mL (≈ 2.28 to 18.2 µM). In addition, the cytotoxicity at 50 µM in series [5] was 38%. In series [6], the cytotoxicity at 50 µM was found to be 36.3%.
